In data set [1] the test system is marble burying. To be noted: cited from earlier work.
Data set [2] has as its system immobility time. To be noted: cited from earlier work.
Data set [3] concerns the target T1, rat mGlu2 (Rattus norvegicus, UniProt P31421). To be noted: cited from earlier work.
Data set [4] concerns the target T2, rat mGlu5 (Rattus norvegicus, UniProt P31424). Conditions: cited from earlier work.
In data set [5] the target is T1, rat mGlu2. The data set is described as follows: mGlu2 calcium mobilization assay. The class given is cell-based. To be noted: full CRC.
The target in data set [6] is T2, rat mGlu5. The data set is described as follows: Calcium mobilization mGlu5 assay. The class given is cell-based. To be noted: calcium mobilization; average of n ≥ 3 (n = 2 where marked).
Data set [7] concerns the target T3, rat mGlu3 (Rattus norvegicus, UniProt P31422). To be noted: calcium mobilization; average of n ≥ 3. For orientation: Calcium assays in cells follow changes in intracellular calcium, usually with a dye or a luminescent sensor.
A short description of data set [8]: Rat cassette PK study, IV dosing. Conditions: in vivo, 0.2 mg/kg.
Data set [9] is described as follows: Intrinsic clearance in rat liver microsomes. The format is in vitro ADME. To be noted: predicted hepatic clearance based on intrinsic clearance in rat liver microsomes.
The target of data set [10] is T3, rat mGlu3. Nature of the data set: cell-based.
Data set [11] has as its target 5-HT2B (Homo sapiens, UniProt P41595). Nature of the data set: 5-HT2B functional cell-based assay. Conditions: agonist or antagonist.
Data set [12] can be described thus: Mouse IP single time point tissue distribution. To be noted: in vivo, 10 mg/kg, plasma concentration, 30 min post dose, n = 3.
Data set [13] can be described thus: Mouse IP PK time course. Conditions: 10 mg/kg dose in marble burying study, estimated from DMPK data. The class given is in vivo.
Data set [14] relates to immobility time. Nature of the data set: Forced swim test. The format is in vivo, rat. Conditions: 56.6 mg/kg (highest dose); male Sprague–Dawley rats; 30 min pretreatment; 6 min session; p < 0.05 vs vehicle.
For data set [15], the system named is other mGlus. The format is cell-based. Conditions: 10 μM compound, fold-shift experiments.
Data set [16] concerns panel of 68 clinically relevant GPCRs, ion channels, kinases, and transporters. The class given is binding. Conditions: 10 μM; 68 targets.
Data set [17] has as its system marble burying. Nature of the data set: Marble burying assay in mice. Conditions: 56.6 mg/kg; male CD-1 mice; 15 min pretreatment.
Data set [18] deals with mGlu3 (Rattus norvegicus, UniProt P31422). To be noted: multiple concentrations of compound.

Usually half-life stands for the time needed for the level to fall by half in the phase considered. A low value points to fast loss. As a reminder, the IC50 is the point on the concentration scale where inhibition reaches its midpoint. Read a high IC50 as a need for much substance.

T3 sequence (P31422 23-879): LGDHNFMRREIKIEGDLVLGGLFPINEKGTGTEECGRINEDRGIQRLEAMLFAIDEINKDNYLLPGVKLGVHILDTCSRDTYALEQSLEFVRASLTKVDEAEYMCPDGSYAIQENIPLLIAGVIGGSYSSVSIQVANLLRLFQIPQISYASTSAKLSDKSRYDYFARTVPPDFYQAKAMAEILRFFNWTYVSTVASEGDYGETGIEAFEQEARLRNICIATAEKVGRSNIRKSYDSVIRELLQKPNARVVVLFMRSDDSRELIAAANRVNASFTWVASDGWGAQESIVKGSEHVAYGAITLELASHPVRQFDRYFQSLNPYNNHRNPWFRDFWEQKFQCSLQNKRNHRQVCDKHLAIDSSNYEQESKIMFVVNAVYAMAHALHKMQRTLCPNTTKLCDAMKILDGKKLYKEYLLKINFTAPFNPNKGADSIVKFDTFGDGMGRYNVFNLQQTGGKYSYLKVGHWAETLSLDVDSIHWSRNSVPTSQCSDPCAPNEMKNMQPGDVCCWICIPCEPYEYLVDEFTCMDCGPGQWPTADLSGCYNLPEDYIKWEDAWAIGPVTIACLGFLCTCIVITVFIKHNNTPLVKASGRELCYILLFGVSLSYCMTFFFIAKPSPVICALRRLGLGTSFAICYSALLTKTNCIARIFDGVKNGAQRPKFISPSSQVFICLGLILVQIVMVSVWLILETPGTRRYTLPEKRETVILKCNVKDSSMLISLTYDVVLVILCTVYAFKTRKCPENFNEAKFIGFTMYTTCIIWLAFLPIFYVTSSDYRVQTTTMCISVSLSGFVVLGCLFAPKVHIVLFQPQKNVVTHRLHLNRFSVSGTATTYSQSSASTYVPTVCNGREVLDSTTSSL
T1 sequence (P31421 19-872): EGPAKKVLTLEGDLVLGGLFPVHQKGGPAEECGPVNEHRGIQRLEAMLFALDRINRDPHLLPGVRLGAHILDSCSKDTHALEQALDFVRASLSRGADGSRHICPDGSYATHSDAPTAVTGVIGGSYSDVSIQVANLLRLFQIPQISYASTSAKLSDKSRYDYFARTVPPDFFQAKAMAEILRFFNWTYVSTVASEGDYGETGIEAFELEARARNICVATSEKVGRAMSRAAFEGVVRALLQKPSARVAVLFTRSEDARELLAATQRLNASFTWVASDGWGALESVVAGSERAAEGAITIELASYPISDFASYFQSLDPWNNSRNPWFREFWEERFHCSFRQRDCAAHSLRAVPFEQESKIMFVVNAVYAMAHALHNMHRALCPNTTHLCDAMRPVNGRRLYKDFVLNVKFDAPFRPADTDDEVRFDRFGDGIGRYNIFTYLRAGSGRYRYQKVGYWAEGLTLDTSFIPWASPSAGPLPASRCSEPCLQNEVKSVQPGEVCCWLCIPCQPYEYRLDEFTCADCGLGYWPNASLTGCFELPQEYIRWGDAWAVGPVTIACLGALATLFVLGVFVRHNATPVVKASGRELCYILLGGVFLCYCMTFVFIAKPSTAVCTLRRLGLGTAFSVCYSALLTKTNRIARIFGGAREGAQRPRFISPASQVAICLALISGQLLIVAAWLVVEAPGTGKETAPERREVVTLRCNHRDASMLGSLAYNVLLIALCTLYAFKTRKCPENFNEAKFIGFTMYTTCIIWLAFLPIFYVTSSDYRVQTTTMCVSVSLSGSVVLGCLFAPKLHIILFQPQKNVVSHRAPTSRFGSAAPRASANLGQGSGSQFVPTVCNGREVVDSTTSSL
T2 sequence (P31424 21-1203): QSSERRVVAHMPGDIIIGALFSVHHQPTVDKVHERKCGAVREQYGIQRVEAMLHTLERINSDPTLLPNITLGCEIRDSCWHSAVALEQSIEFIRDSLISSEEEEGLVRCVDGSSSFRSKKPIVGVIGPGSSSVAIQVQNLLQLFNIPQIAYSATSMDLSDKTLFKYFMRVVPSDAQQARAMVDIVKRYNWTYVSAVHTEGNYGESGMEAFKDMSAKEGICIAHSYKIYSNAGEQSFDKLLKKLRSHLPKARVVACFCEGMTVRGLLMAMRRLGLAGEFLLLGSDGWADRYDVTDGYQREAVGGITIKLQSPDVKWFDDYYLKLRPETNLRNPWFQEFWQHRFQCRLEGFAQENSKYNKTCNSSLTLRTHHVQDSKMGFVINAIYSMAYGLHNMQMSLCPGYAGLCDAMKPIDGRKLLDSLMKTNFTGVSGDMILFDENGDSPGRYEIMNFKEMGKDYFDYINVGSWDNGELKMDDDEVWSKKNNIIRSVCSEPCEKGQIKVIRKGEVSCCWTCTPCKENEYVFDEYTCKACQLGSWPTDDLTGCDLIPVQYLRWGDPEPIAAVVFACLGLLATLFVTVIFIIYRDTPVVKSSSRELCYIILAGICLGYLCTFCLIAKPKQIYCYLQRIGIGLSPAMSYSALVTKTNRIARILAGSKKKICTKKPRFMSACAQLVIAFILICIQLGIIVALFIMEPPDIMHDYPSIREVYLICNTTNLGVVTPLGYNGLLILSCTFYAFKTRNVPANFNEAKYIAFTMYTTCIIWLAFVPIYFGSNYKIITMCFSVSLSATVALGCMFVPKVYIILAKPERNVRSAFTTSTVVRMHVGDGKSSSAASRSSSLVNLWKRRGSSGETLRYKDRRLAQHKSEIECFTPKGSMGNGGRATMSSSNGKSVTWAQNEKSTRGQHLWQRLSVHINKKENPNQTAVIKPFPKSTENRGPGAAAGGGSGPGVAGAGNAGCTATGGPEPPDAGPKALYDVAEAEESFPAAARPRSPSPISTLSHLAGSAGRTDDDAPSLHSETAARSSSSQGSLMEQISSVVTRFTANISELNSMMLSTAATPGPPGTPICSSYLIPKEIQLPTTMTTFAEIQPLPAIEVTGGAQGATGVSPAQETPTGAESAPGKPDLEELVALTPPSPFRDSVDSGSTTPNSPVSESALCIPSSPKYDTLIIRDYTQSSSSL
Sequence of 5-HT2B (P41595 whole entry, species assumed): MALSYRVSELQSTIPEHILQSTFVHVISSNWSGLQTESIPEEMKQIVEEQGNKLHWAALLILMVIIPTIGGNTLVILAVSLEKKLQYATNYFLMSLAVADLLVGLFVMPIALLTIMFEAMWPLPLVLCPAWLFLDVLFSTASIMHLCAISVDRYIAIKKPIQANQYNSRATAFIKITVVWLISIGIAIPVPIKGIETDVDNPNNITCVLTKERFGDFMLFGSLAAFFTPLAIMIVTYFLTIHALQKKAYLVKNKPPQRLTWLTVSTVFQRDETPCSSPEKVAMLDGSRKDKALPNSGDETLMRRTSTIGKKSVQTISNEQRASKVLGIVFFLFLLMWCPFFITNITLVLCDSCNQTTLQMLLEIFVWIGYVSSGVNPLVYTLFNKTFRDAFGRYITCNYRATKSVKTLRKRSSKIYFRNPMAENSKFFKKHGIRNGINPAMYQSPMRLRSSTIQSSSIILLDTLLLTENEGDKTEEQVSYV
Sequence of mGlu3 (P31422 23-879): as the sequence (P31422 23-879) above

Take `N[C@](CC1c2ccccc2Oc2ccccc21)(C(=O)O)[C@H]1C[C@@H]1C(=O)O` [Compound 1]: in [1], the “inhibition of marble burying” value is recorded as “previously shown to inhibit marble burying”. Besides, the “efficacy in FST” value in [2] was “efficacy”.
`N[C@]1(C(=O)O)[C@H]2[C@@H](C[C@H]1OCc1ccc(Cl)c(Cl)c1)[C@]2(F)C(=O)O` [Compound 2]: the “inhibition of marble burying” value in data set [1] was “previously shown to inhibit marble burying”. Also, in data set [2], the “efficacy in FST” value is recorded as “efficacy”.
Regarding `COc1ccc(C#Cc2ccc(C(=O)N3CCC[C@@H](CO)C3)cc2)cc1` [Compound 7], the “selectivity versus mGlu2” value in data set [3] is listed as greater than 15 fold.
`COc1ccc(C#Cc2ccc(C(=O)N3CCC[C@@H](O)C3)c(F)c2)cc1` [Compound 8]: the “mGlu5 activity” value in data set [4] was “devoid of both mGlu2 and mGlu5 activity”. Moreover, in [3], the “mGlu2 activity” value was “devoid of both mGlu2 and mGlu5 activity”.
As for `C[C@@H]1CN(c2ccc(F)cc2)C(=O)c2cc(COc3ccccn3)nn21` [Compound 10], the “mGlu2: inactive up to the top concentration tested” value in data set [5] was greater than 30 µM.
In the case of `C[C@@H]1CN(c2ccc(F)cc2)C(=O)c2cc(COc3ccc(F)cc3)nn21` [Compound 24], in [6], the “mGlu5 pEC50 (± SEM)” value is 7.03 ± 0.05. Further, the “mGlu3 pIC50 (± SEM)” value in data set [7] is listed as 6.34 ± 0.04. In data set [8], this compound registered a half-life greater than 1.5 h.
With `C[C@@H]1CN(c2ccc(F)cc2)C(=O)c2cc(COc3ccc(Cl)cn3)nn21` [Compound 48], the half-life in data set [8] is roughly 2 h.
As for `C[C@@H]1CN(c2cc(F)cc(C#N)c2)C(=O)c2cc(COc3ccc(Cl)cn3)nn21` [Compound 99], the “rat CLhep” value in [9] is given as 47.7 mL/min/kg. Also, the midpoint of inhibition in data set [10], the IC50, lay at 529 nM. In addition, in data set [8], the half-life was greater than 3 h.
As for `C[C@@H]1CN(c2ccccn2)C(=O)c2cc(COc3ccc(Cl)cn3)nn21` [Compound 100], the “mGlu5 pEC50 (± SEM)” value in data set [6] was less than 4.5. Also, the “rat CLhep” value in [9] is given as 69.5 mL/min/kg. For the same compound, in [7], the “mGlu3 pIC50 (± SEM)” value turned out to be 6.48 ± 0.07.
As to `C[C@@H]1CN(c2cccnc2)C(=O)c2cc(COc3ccc(Cl)cn3)nn21` [Compound 101], in data set [6], the “mGlu5 pEC50 (± SEM)” value was less than 4.5. Further, the “rat CLhep” value in [9] was 42.0 mL/min/kg. The “mGlu3 pIC50 (± SEM)” value in [7] turned out to be 6.22 ± 0.10.
Consider `C[C@@H]1CN(c2cccnc2F)C(=O)c2cc(COc3ccc(Cl)cn3)nn21` [Compound 106, (R)-2-(((5-Chloropyridin-2-yl)oxy)methyl)-5-(2-fluoropyridin-3-yl)-7-methyl-6,7-dihydropyrazolo[1,5-a]pyrazin-4(5H)-one], for which, in [6], the “mGlu5 pEC50 (± SEM)” value was less than 4.5. The “mGlu2: inactive up to the top concentration tested” value in data set [5] is greater than 30 µM. Also, in data set [11], the “5-HT2B functional activity: no activity up to” value was greater than 10 µM. For the same compound, the concentration at 30 min in [12] came out at 2590 ± 290 nM. In addition, the “estimated peak CNS unbound exposure” value in [13] is given as 564 nM. The “decrease in immobility time in FST” value in data set [14] was “significant effects in decreasing immobility time”. Also, in data set [15], the “effect on the orthosteric agonist CRC, other mGlus” value is listed as “No significant effect”. Besides, in [16], the “significant responses (>50% inhibition of radioligand binding) in panel” value is given as “only a single significant response”. In addition, in data set [7], the “mGlu3 pIC50 (± SEM)” value is recorded as 6.41 ± 0.05. Also, the “inhibition of marble burying at highest dose” value in data set [17] is “essentially complete inhibition”.
For `C[C@@H]1CN(c2cnccc2F)C(=O)c2cc(COc3ccc(Cl)cn3)nn21` [Compound 107], the “mGlu5 pEC50 (± SEM)” value in data set [6] was less than 4.5. Moreover, the “rat CLhep” value in data set [9] is recorded as 36.0 mL/min/kg. In addition, in data set [7], the “mGlu3 pIC50 (± SEM)” value is reported as 6.32 ± 0.03.
For the compound `C[C@@H]1CN(c2cncc(F)c2)C(=O)c2cc(COc3ccc(Cl)cn3)nn21` [Compound 108], the “mGlu5 pEC50 (± SEM)” value in data set [6] is recorded as less than 4.5. Moreover, in [9], the “rat CLhep” value was 26.6 mL/min/kg.
For the compound `C[C@@H]1CN(c2cncc(C#N)c2)C(=O)c2cc(COc3ccc(Cl)cn3)nn21` [Compound 109], the “mGlu5 pEC50 (± SEM)” value in [6] was less than 4.5. In addition, in data set [9], the “rat CLhep” value is reported as 22.8 mL/min/kg. In addition, the “mGlu3 pIC50 (± SEM)” value in [7] is listed as 6.22 ± 0.01.
For the compound `N#Cc1cc(C2=Nc3ccc(Br)cc3NC(=O)C2)ccn1` [Compound 111], the “effect on the glutamate CRC (progressive fold-shift)” value in data set [18] was “characteristic rightward shift and depressed glutamate maximum”.

The values above are taken from paper PMC4809247 (Journal of medicinal chemistry, 2015).
